# Measurements taken from US8518932B2, “Oxime azetidine derivatives as sphingosine 1-phosphate (S1P) receptor modulators” (Allergan, Inc., priority 2010, dated 2013).
# Target: T1, human S1P1 receptor (Homo sapiens, UniProt P21453)
# T1 construct: expressed in transfected cells; membranes used
# Test: GTP γ35S binding assay for S1P1 activity
# Format: biochemical
# Settings: membranes of cells stably expressing the S1P1 receptor, test compounds 0.08 to 5,000 nM, 30 min at 25° C.
# Protocol: Compounds were synthesized and tested for S1P1 activity using the GTP γ^35S binding assay. These compounds may be assessed for their ability to activate or block activation of the human S1P1 receptor in cells stably expressing the S1P1 receptor.
# GTP γ^35S binding was measured in the medium containing (mM) HEPES 25, pH 7.4, MgCl2 10, NaCl 100, dithitothreitol 0.5, digitonin 0.003%, 0.2 nM GTP γ^35S, and 5 μg membrane protein in a volume of 150 μl. Test compounds were included in the concentration range from 0.08 to 5,000 nM unless indicated otherwise. Membranes were incubated with 100 μM 5′-adenylylimmidodiphosphate for 30 min, and subsequently with 10 μM GDP for 10 min on ice. Drug solutions and membrane were mixed, and then reactions were initiated by adding GTP γ^35S and continued for 30 min at 25° C. Reaction mixtures were filtered over Whatman GF/B filters under vacuum, and washed three times with 3 mL of ice-cold buffer (HEPES 25, pH7.4, MgCl2 10 and NaCl 100). Filters were dried and mixed with scintillant, and counted for ^35S activity using a β-counter. Agonist-induced GTP γ^35S binding was obtained by subtracting that in the absence of agonist. Binding data were analyzed using a non-linear regression method. In case of antagonist assay, the reaction mixture contained 10 nM S1P in the presence of test antagonist at concentrations ranging from 0.08 to 5000 nM.
# T1 sequence (P21453 whole entry): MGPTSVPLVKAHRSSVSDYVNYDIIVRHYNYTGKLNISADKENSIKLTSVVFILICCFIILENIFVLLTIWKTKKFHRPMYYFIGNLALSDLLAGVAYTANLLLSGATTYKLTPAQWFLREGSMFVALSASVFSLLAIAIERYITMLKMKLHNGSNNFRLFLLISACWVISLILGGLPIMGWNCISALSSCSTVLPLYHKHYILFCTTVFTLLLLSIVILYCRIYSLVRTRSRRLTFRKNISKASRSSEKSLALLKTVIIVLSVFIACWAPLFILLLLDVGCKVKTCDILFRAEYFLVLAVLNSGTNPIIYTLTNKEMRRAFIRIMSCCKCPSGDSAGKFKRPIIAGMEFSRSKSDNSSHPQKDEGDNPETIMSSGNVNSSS
row,SMILES,EC50 [nM]
1,"C/C(=N\OCC(Cc1ccc(C)c(C)c1)c1cccc(Cl)c1)c1ccc(CN2CC(C(=O)O)C2)cc1 (centres unmarked) [Compound 2, 1-(4-{(1E)-N-[2-(3-chlorophenyl)-3-(3,4-dimethylphenyl)propoxy]ethanimidoyl}benzyl)azetidine-3-carboxylic acid]",9.05
2,"C/C(=N\OCc1ccc(CN2CC(C(=O)O)C2)cc1)C(Cc1ccc(C)c(C)c1)c1cc(F)cc(F)c1 (centres unmarked) [Compound 4, 1-{4-[({[(1E)-2-(3,5-difluorophenyl)-3-(3,4-dimethylphenyl)-1-methylpropylidene]amino}oxy)methyl]benzyl}azetidine-3-carboxylic acid]",17.5
3,"C/C(=N\OCc1ccc(CN2CC(C(=O)O)C2)cc1)C(Cc1ccc(C)c(C)c1)c1cccc(Cl)c1 (centres unmarked) [Compound 3, 1-{4-[({[(1E)-2-(3-chlorophenyl)-3-(3,4-dimethylphenyl)-1-methylpropylidene]amino}oxy)methyl]benzyl}azetidine-3-carboxylic acid]",230
4,"C/C(=N\OCC(Oc1ccc(C)c(C)c1)c1cccc(Cl)c1)c1ccc(CN2CC(C(=O)O)C2)cc1 (centres unmarked) [Compound 8, 1-(4-{(1E)-N-[2-(3-chlorophenyl)-2-(3,4-dimethylphenoxy)ethoxy]ethanimidoyl}benzyl)azetidine-3-carboxylic acid]",163
5,"C/C(=N\OCC(Cc1ccc(C)c(C)c1)c1cccc(C)c1)c1ccc(CN2CC(C(=O)O)C2)cc1 (centres unmarked) [Compound 1, 1-(4-{(1E)-N-[2-(3-methylphenyl)-3-(3,4-dimethylphenyl)propoxy]ethanimidoyl}benzyl)azetidine-3-carboxylic acid]",16.5
